Test results from publication PMC4769088, “Antifungal Activity and Action Mechanism of Histatin 5-Halocidin Hybrid Peptides against Candida ssp” (PLoS ONE, 2016).
Read-outs that look alike come from different tables or passages of the source. Where a SMILES comes first, the peptide text is derived from it. Bridges are numbered along the chain shown (N, C = ends). Roman numbers before positions name the chains, in order. Where no end group is shown, it is not given here.

What was measured:
Type in all cases: cell-based, Candida albicans
C.albicans SC5413 = system: C.albicans SC5413
Experimental: (§1) To determine the candidacidal activity of the peptides, we used Candida strains obtained from the Culture collection of antimicrobial resistant microbes at Seoul Women’s University in Korea. These included three Candida albicans (CCARM 14020, 14021, 14022), Candida guillermondi and Candida tropicalis. In addition, Candida albicans SC5413 was kindly provided by Dr Jeong-Yoon Kim at the Department of Microbiology & Molecular Biology, Chungnam University, Korea. Yeast were cultured overnight at 30°C in 10 ml of yeast extract-peptone-dextrose (YPD) broth (Qbiogene), then diluted in 10 ml of YPD broth to OD600 = 0.2 and grown for an additional 4 h with shaking at 30°C until OD600 = 0.8 in order to obtain mid-log phase cultures. The peptides (Hst 5, P113, HHP1, HHP2, PH1, PH2, di-PH1, di-PH2, WP1, di-WP2, di-15Hc and di-18Hc) in this study were synthesized by using standard solid-phase synthesis protocols and were purified by reversed-phase high-performance liquid chromatography at Anygen Inc. (Korea). FITC-labeled peptides (F-Hst5, F-P113, F-HHP1, F-di-PH2, F-di-WP2 and F-di-18Hc) were also synthesized by 6-aminohexnoic acid linker at Anygen (Korea) for confocal experiments.
(§2) The candidacidal activities of the peptides were tested by using standard microdilution plate assays, radial diffusion assays and broth dilution assay slightly modified from the procedure recommended by the National Committee for Clinical Laboratory Standards. For the candidacidal assays, C. albicans cells were grown in YPD medium and washed twice with 10 mM sodium phosphate buffer (NaPB; Na2HPO4, NaH2PO4, pH 7.4). The cells (1 x 10^6) were then mixed with different concentrations of peptides and incubated at 30°C with constant shaking for 60 min. For energy depletion experiments, cells were pre-incubated with 10 mM NaPB containing 5 mM NaN3 at 30°C for 60 min before the addition of peptides. The cell suspensions were diluted in 10 mM NaPB and aliquots of 500 cells were spread onto YPD agar plates then incubated for 24 h at 30°C to visualize the surviving colonies. Cell survival was expressed as a percentage of that for the control, and the loss of viability was calculated as [1 x (number of colonies from peptide-treated cells/number of colonies from control cells)] x 100. Candidacidal assays were performed in triplicate. For the radial diffusion assay, C. albicans cells were grown in YPD medium overnight and washed twice with 10 mM NaPB. Washed yeast-phase C. albicans cells (1 x 10^6 CFU) were trapped in thin underlay gels containing 9 mM sodium phosphate, 1 mM sodium citrate buffer, 1% (wt/vol) agarose (A6013; Sigma), and 0.3 mg of Sabouraud dextrose broth (Difco)/ml. After incubation at 37°C for 3 h, a 10 ml overlay gel of 1% agarose and 6% Sabouraud dextrose broth was poured on the underlay gel and then the plates were incubated overnight at 37°C. The clear-zone diameters were measured to the nearest 0.1 mm and graphed against the peptide concentration. Zone diameters were expressed in units (0.1 mm = 1 unit). For the broth dilution assay, the Candida strains were cultured in LYM broth for 18 h at 30°C. The numbers of yeasts were counted using a hemocytometer. Stock peptide solutions were prepared to a concentration of 320 μg/ml in distilled water, and were then serially diluted twofold, to 5 μg/ml. 100 μl aliquots of the diluted culture media containing candida cells (1 x 10^3) were dispensed into the wells of 96-well polypropylene microtiter plates (Costar 3879, Corning, NY), to which peptide solution (11 μl) was then added. In the experiments conducted to assess the candidacidal activity of peptides in the presence of salt, we used LYM supplemented with 150 mM NaCl for the culture medium, which was mixed with the peptide solution. The antifungal activities were evaluated after 24 h of incubation at 30°C by the observation of visible turbidity the wells. […]

C.albicans CCARM 14022 = system: C.albicans CCARM 14022
Experimental: as §1, §2

C.albicans CCARM 14020 = system: C.albicans CCARM 14020
Experimental: as §1, §2

C.albicans CCARM 14021 = system: C.albicans CCARM 14021
Experimental: as §1, §2

[1] = NaCl 150 mM, LYM supplemented with 150 mM NaCl, 24 h at 30°C

## C[C@H](NC(=O)[C@H](Cc1c[nH]cn1)NC(=O)[C@H](CO)NC(=O)[C@@H](N)CC(=O)O)C(=O)N[C@@H](CCCCN)C(=O)N[C@@H](CCCNC(=N)N)C(=O)N[C@@H](Cc1c[nH]cn1)C(=O)N[C@@H](Cc1c[nH]cn1)C(=O)NCC(=O)N[C@@H](Cc1ccc(O)cc1)C(=O)N[C@@H](CCCCN)C(=O)N[C@@H](CCCNC(=N)N)C(=O)N[C@@H](CCCCN)C(=O)N[C@@H](Cc1ccccc1)C(=O)N[C@@H](Cc1c[nH]cn1)C(=O)N[C@@H](CCC(=O)O)C(=O)N[C@@H](CCCCN)C(=O)N[C@@H](Cc1c[nH]cn1)C(=O)N[C@@H](Cc1c[nH]cn1)C(=O)N[C@@H](CO)C(=O)N[C@@H](Cc1c[nH]cn1)C(=O)N[C@@H](CCCNC(=N)N)C(=O)NCC(=O)N[C@@H](Cc1ccc(O)cc1)C(=O)O [Hst 5, Histatin 5]
C.albicans SC5413; [1]
  MICs: 32< μg/ml
C.albicans SC5413; SC5413, 24 h
  MICs: 8 to 16 µg/mL
C.albicans CCARM 14022; CCARM 14022, 24 h
  MICs: 8 to 16 µg/mL
C.albicans CCARM 14022; [1]
  MICs: 32< μg/ml
C.albicans CCARM 14020; CCARM 14020, 24 h
  MICs: 8 to 16 µg/mL
C.albicans CCARM 14020; [1]
  MICs: 32< μg/ml
C.albicans CCARM 14021; CCARM 14021, 24 h
  MICs: 4 to 8 µg/mL
C.albicans CCARM 14021; [1]
  MICs: 32< μg/ml

## CC(C)C[C@H](NC(=O)CNC(=O)[C@H](Cc1c[nH]cn1)NC(=O)[C@H](Cc1c[nH]cn1)NC(=O)[C@H](CCCNC(=N)N)NC(=O)[C@H](CCCCN)NC(=O)[C@H](C)N)C(=O)N[C@@H](CC(N)=O)C(=O)N[C@@H](CSSC[C@H](NC(=O)[C@H](CC(N)=O)NC(=O)[C@H](CC(C)C)NC(=O)CNC(=O)[C@H](Cc1c[nH]cn1)NC(=O)[C@H](Cc1c[nH]cn1)NC(=O)[C@H](CCCNC(=N)N)NC(=O)[C@H](CCCCN)NC(=O)[C@H](C)N)C(=O)N[C@@H](C)C(=O)N[C@@H](CCCCN)C(=O)N[C@@H](Cc1ccccc1)C(=O)N[C@@H](Cc1c[nH]cn1)C(N)=O)C(=O)N[C@@H](C)C(=O)N[C@@H](CCCCN)C(=O)N[C@@H](Cc1ccccc1)C(=O)N[C@@H](Cc1c[nH]cn1)C(N)=O [di-PH2] (I: H-AKRHHGLNCAKFH-NH2 / II: H-AKRHHGLNCAKFH-NH2; disulfide I:9-II:9 (inferred); N-terminus assumed)
C.albicans SC5413; [1]
  MICs: 32< μg/ml
C.albicans SC5413; SC5413, 24 h
  MICs: 1 to 2 µg/mL
C.albicans CCARM 14022; CCARM 14022, 24 h
  MICs: 2 to 4 µg/mL
C.albicans CCARM 14022; [1]
  MICs: 32< μg/ml
C.albicans CCARM 14020; CCARM 14020, 24 h
  MICs: 1 to 2 µg/mL
C.albicans CCARM 14020; [1]
  MICs: 32< μg/ml
C.albicans CCARM 14021; CCARM 14021, 24 h
  MICs: 1 to 2 µg/mL
C.albicans CCARM 14021; [1]
  MICs: 32< μg/ml

## AKRHHGYKRKFH-NH2 [P113]
C.albicans SC5413; [1]
  MICs: 32< μg/ml
C.albicans SC5413; SC5413, 24 h
  MICs: 4 to 8 µg/mL
C.albicans CCARM 14022; CCARM 14022, 24 h
  MICs: 8 to 16 µg/mL
C.albicans CCARM 14022; [1]
  MICs: 32< μg/ml
C.albicans CCARM 14020; CCARM 14020, 24 h
  MICs: 4 to 8 µg/mL
C.albicans CCARM 14020; [1]
  MICs: 32< μg/ml
C.albicans CCARM 14021; CCARM 14021, 24 h
  MICs: 4 to 8 µg/mL
C.albicans CCARM 14021; [1]
  MICs: 32< μg/ml
